Data published in PMC6696198, “Thyroid Peroxidase Activity is Inhibited by Phenolic Compounds—Impact of Interaction” (Molecules, 2019).
Values joined by “and” are separate entries in the source; they are usually repeats but may differ in a detail not shown here. Equal entries are not always repeated. “Also recorded” adds a separate entry of the source. Where two headings read alike, the source gives them in different places.

Tests used:
[1] = ABTS radical scavenging (in vitro antioxidant capacity) assay; conditions: n = 9
Protocol: The ABTS radical scavenging activity was determined according to Re et al. with some modifications. 250 µL of ABTS solution was mixed with 10 µL of each pure polyphenols solutions (concentration 50 µg/mL) and measured at the wavelength 724 nm using a UV/Vis spectrophotometer (BioTek, Model Epoch2TC, Winooski, Vermont, VT, USA) after 15 min of incubation in room temperature. The inhibition percentage of ABTS discoloration was calculated using the following equation: AA=Ac−Ap/Ac×100% Where Ac—the absorbance of control, Ap—the absorbance of pure polyphenols solutions.

TPO [2] = test system: TPO; set-up: method as in PMID 8924586; conditions: read-out: IC50 in relation to TPO; cited from earlier work
thyroid peroxidase (TPO) [3] = target: T1, thyroid peroxidase (TPO) (Sus scrofa, UniProt P09933); experiment: Effect of pure substance combinations on TPO activity (isobolographic analysis); format: biochemical, porcine; set-up: key to CI (Combination Index): CI <1 = synergy, =1 = addition, >1 = antagonism; conditions: TPO inhibition; for CI (Combination Index): n = 9
T1 construct: The frozen thyroid gland was cut into slices and homogenized in a buffer containing 0.25 M sucrose; from tissue; host or cells: porcine thyroid gland (homogenate, centrifuged, salted-out to 60%)
T1 sequence (P09933 15-926): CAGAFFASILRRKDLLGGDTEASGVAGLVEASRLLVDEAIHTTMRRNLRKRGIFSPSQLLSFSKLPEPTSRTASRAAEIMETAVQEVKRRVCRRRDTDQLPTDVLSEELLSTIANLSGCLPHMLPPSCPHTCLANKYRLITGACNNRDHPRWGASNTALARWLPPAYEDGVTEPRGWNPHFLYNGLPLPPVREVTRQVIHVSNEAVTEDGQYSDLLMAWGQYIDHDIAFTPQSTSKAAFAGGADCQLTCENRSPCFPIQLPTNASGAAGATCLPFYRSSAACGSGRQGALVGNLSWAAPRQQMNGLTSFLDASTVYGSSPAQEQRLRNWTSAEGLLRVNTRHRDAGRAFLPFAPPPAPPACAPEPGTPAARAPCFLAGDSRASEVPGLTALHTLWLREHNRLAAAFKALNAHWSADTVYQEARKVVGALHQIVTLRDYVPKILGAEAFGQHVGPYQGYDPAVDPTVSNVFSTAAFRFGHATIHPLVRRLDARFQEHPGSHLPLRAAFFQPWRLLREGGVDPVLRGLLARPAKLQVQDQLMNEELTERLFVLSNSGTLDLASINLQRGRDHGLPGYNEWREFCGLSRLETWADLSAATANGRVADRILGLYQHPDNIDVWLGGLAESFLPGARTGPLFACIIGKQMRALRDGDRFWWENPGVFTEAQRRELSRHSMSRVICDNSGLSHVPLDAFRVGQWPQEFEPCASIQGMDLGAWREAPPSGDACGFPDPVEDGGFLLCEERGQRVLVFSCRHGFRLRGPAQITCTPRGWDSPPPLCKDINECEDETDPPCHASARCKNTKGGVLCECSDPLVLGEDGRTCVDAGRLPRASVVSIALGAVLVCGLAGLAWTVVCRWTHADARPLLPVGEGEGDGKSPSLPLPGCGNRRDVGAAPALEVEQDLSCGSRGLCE
Protocol: (§1) The assay was used according to Jomaa with some modification. The measurement was made using a plate spectrophotometer (BioTek, Model Epoch2TC, Winooski, Vermont, VT, USA) in 96–well plates at a wavelength of 470 nm. The assay was conducted as follows: 50 µl of buffer, 40 µl of pure substance solution, 50 µL of guaiacol, 20 µL of TPO enzyme and 50 µL H2O2. The total volume of the mixture was 210 µL. In the sample probe, extracts were replaced by the buffer. Absorbance readings were recorded every minute for a total of 3 min in 37^o. As a unit of TPO activity is defined as the change of absorbation per minute.
Results (type and strength of interactions) can be shown on the isobolograms and described by the combination Index (CI). When CI is lower than one, indicates synergy; when CI is equal to one, indicates addition; when CI is higher than one, indicates antagonism. Isobolograms were performed according to Chou. […] Pure substances were mixed in various volume ratios: 1:4, 4:1, 3:2, 2:3, 1:1. All of the mixtures were made in combinations of two substances. The inhibitory assay was made using the same proportions as with single solutions.

[4] = after meal containing 150 g fried onions (equivalent to 64 mg quercetin); cited from earlier work
thyroid peroxidase (TPO) [5] = target: T1, thyroid peroxidase (TPO); experiment: TPO inhibitory assay (guaiacol oxidation); format: biochemical, porcine; conditions: for Mode of Inhibition: Lineweaver-Burk plot, with respect to guaiacol; for Vmax: TPO in presence of inhibitor; for Vmax / Ki / IC50: n = 9; for IC50: porcine thyroid TPO, guaiacol assay, read-out: IC50 of TPO inhibition
Protocol: Porcine thyroid glands were obtained at a local slaughterhouse (Lublin, Poland) and stored in −20 °C until used.
The assay was prepared according to Jomaa with some modifications. The frozen thyroid gland was cut into slices and homogenized in a buffer containing 0.25 M sucrose, 2 mM Tris—HCl, 100 mM KCl, 40 mM NaCl, 10 mM MgCl2 (pH 7.4) with a Philips homogenizer. The thyroid gland was than centrifuged two times at 4000 RPM per 15 min in temperature +4 °C. The enzyme protein was then salted-out to 60%. The supernatant was used for further analysis and was stored in a −20 °C freezer.
The activity of the enzyme was assayed using a guaiacol assay. […] The reaction components were incubated in 37 °C before the assignment. […] The assay was conducted as follows: To a cuvette, 180 µL of buffer, 100 µL of guaiacol and 40 µL of TPO were mixed to the final volume of […]. The cuvette was then placed into the spectrophotometer and the reaction was started by the addition of 100 µL H2O2. Absorbance readings were recorded every minute for a total of 3 min. Verification of the TPO activity was accomplished by linearly correlating the TPO concentration with absorbance readings.
as §1
TPO inhibitory activity was calculated as follows: %inhibition=(1−ΔA/mintest/ΔAminblank)×100 Where: ΔA/min test is the linear absorbance change per minute of the test material and ΔA min blank is the linear change in absorbance per minute of the blank.
The IC50 value was determined by the interpolation of dose response curves. […] The mode of inhibition of the enzyme was performed using the Lineweaver–Burk plot.

TPO [6] = test system: TPO; set-up: method as in PMID 25822105; conditions: according to literature data ref 22; read-out: IC50 of TPO inhibition (positive controls); cited from earlier work
[7] = set-up: method as in PMID 25978046; conditions: Melissa officinalis extract containing 500 mg rosmarinic acid, fasted state; cited from earlier work
[8] = set-up: method as in doi:10.1039/C6RA28237G; conditions: rats, cited from earlier work
[9] = six weeks supplementation with rutin, volunteers; cited from earlier work
[10] = mixture with Chlorogenic Acid, listed as Rosmarinic acid
[11] = mixture with Quercetin, listed as Rosmarinic acid
[12] = mixture with Chlorogenic Acid, listed as Rutin

Cc1c(C)c2c(c(C)c1O)CCC(C)(C(=O)O)O2 (centres unmarked) [Trolox, 6-hydroxy-2,5,7,8-tetramethylchroman-2-carboxylic acid, reference compound]
IC50 [1]: 407 ± 14 µM

O=c1c(O)c(-c2ccc(O)c(O)c2)oc2cc(O)cc(O)c12 [quercetin]
IC50 (TPO [2]): 2.4 µM | Type of interaction (scale according to Chou) (thyroid peroxidase (TPO) [3]; mixture with Chlorogenic Acid): Antagonism | Type of interaction (scale according to Chou) (thyroid peroxidase (TPO) [3]; mixture with Rosmarinic Acid): Moderate antagonism | IC50 [1]: 450 µM and 447 µM | human plasma concentration of quercetin [4]: about 0.65 umol/l | Mode of Inhibition (thyroid peroxidase (TPO) [5]): uncompetitive | Vmax (thyroid peroxidase (TPO) [5]): 149.25 ± 4.35 a ΔAU/min

O=C(/C=C/c1ccc(O)c(O)c1)O[C@@H]1C[C@](O)(C(=O)O)C[C@@H](O)[C@H]1O [chlorogenic acid]
Type of interaction (scale according to Chou) (thyroid peroxidase (TPO) [3]; mixture with Quercetin): antagonism; also recorded: antagonistic interaction | Type of interaction (scale according to Chou) (thyroid peroxidase (TPO) [3]; mixture with Quercetin, listed as Chlorogenic acid): Antagonism | Type of interaction (scale according to Chou) (thyroid peroxidase (TPO) [3]; mixture with Rosmarinic Acid): antagonistic interaction; also recorded: Moderate antagonism | Type of interaction (scale according to Chou) (thyroid peroxidase (TPO) [3]; mixture with Rutin): Slight synergism | Mode of Inhibition (thyroid peroxidase (TPO) [5]): noncompetitive | Vmax (thyroid peroxidase (TPO) [5]): 149.25 ± 5.97 a * ΔAU/min | Ki (thyroid peroxidase (TPO) [5]): 170 ± 5 µM | IC50 (thyroid peroxidase (TPO) [5]): 1440 ± 41 µM

CCCc1cc(=O)[nH]c(=S)[nH]1 [Propylthiouracil]
IC50 (TPO [6]): 4 µM

O=C(/C=C/c1ccc(O)c(O)c1)O[C@H](Cc1ccc(O)c(O)c1)C(=O)O [rosmarinic acid]
Type of interaction (scale according to Chou) (thyroid peroxidase (TPO) [3]; mixture with Chlorogenic Acid): moderate antagonism | CI (Combination Index) (thyroid peroxidase (TPO) [3]; mixture with Chlorogenic Acid): 1.25 | CI (Combination Index) (thyroid peroxidase (TPO) [3]; [10]): 1.25 ± 0.05 | Type of interaction (scale according to Chou) (thyroid peroxidase (TPO) [3]; [10]): Moderate antagonism | Type of interaction (scale according to Chou) (thyroid peroxidase (TPO) [3]; mixture with Quercetin): moderate antagonism; also recorded: antagonistic interaction | CI (Combination Index) (thyroid peroxidase (TPO) [3]; mixture with Quercetin): 1.45 | CI (Combination Index) (thyroid peroxidase (TPO) [3]; [11]): 1.45 ± 0.03 | Type of interaction (scale according to Chou) (thyroid peroxidase (TPO) [3]; [11]): Moderate antagonism | Type of interaction (scale according to Chou) (thyroid peroxidase (TPO) [3]; mixture with Rutin): nearly additive | CI (Combination Index) (thyroid peroxidase (TPO) [3]; mixture with Rutin): 1.06 ± 0.05 | Type of interaction (scale according to Chou) (thyroid peroxidase (TPO) [3]; mixture with Rutin, listed as Rosmarinic acid): Nearly additive | maximum serum concentration [7]: 162.20 nM | time of peak serum concentration of total rosmarinic acid [7]: 1 h | IC50 [1]: 151 ± 6 µM | absolute bioavailability ([8]; oral 25 mg/kg): 1.28% | absolute bioavailability ([8]; oral 50 mg/kg): 0.91% | absolute bioavailability ([8]; oral […]): 1.69% | Mode of Inhibition (thyroid peroxidase (TPO) [5]): competitive | Vmax (thyroid peroxidase (TPO) [5]): 175.44 ± 7.01 b ΔAU/min | Ki (thyroid peroxidase (TPO) [5]): 1 µM | IC50 (thyroid peroxidase (TPO) [5]): 4 ± 0.14 µM

Cn1cc[nH]c1=S [Methimazole]
IC50 (TPO [6]): 10.7 µM

C[C@@H]1O[C@@H](OC[C@H]2O[C@@H](Oc3c(-c4ccc(O)c(O)c4)oc4cc(O)cc(O)c4c3=O)[C@H](O)[C@@H](O)[C@@H]2O)[C@H](O)[C@H](O)[C@H]1O [rutin]
IC50 (TPO [2]): 40.6 µM | Type of interaction (scale according to Chou) (thyroid peroxidase (TPO) [3]; mixture with Chlorogenic Acid): slight synergism; also recorded: synergistically | CI (Combination Index) (thyroid peroxidase (TPO) [3]; mixture with Chlorogenic Acid): 0.88 | CI (Combination Index) (thyroid peroxidase (TPO) [3]; [12]): 0.88 ± 0.02 | Type of interaction (scale according to Chou) (thyroid peroxidase (TPO) [3]; [12]): Slight synergism | Type of interaction (scale according to Chou) (thyroid peroxidase (TPO) [3]; mixture with Quercetin): additive interaction; also recorded: nearly additive | CI (Combination Index) (thyroid peroxidase (TPO) [3]; mixture with Quercetin): 0.096 and 0.096 ± 0.05 | Type of interaction (scale according to Chou) (thyroid peroxidase (TPO) [3]; mixture with Quercetin, listed as Rutin): additively; also recorded: Nearly additive | Type of interaction (scale according to Chou) (thyroid peroxidase (TPO) [3]; mixture with Rosmarinic Acid): additively; also recorded: additive interaction | Type of interaction (scale according to Chou) (thyroid peroxidase (TPO) [3]; mixture with Rosmarinic Acid, listed as Rutin): Nearly additive | IC50 [1]: 292 ± 10 µM | increase in plasma isorhamnetin [9]: 10 fold | increase in plasma kaempferol [9]: 3 fold | increase in plasma quercetin [9]: 2.5 fold | Mode of Inhibition (thyroid peroxidase (TPO) [5]): competitive | Vmax (thyroid peroxidase (TPO) [5]): 149.25 ± 5.01 a ΔAU/min | Ki (thyroid peroxidase (TPO) [5]): 130 ± 3 µM
